In test [1] the target is T1, thromboxane synthetase enzyme (Rattus norvegicus, UniProt P49430).
T1 construct: The platelets were isolated by centrifuging the PRP for 10 minutes; from tissue; host or cells: washed platelets from arterial blood of Okamoto-Aoki spontaneously hypertensive rats (animals from Taconic Farms)
T1 sequence (P49430 1-533): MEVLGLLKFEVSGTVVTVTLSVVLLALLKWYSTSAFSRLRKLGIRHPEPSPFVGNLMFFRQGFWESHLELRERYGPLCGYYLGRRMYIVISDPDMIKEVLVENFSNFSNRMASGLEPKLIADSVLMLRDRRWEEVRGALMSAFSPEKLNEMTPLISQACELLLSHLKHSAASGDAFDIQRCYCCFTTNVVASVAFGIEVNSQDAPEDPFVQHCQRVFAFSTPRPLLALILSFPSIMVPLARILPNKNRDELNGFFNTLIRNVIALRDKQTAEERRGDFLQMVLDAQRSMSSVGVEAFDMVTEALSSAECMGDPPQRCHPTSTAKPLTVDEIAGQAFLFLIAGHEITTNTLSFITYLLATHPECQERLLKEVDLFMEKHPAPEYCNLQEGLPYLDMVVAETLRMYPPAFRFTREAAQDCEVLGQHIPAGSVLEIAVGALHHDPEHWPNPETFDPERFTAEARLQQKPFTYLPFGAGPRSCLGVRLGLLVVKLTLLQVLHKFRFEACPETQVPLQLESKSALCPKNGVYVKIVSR
Nature of the test: Thromboxane synthetase enzyme inhibition (TXB2 formation in platelet suspension, RIA). To be noted: concentration 1 × 10^-4 M; SHR platelet suspension, 10 minutes at 37° C. The format is cell-based, Okamoto-Aoki spontaneously hypertensive rats (SHR). The protocol:
Under urethan anethesia, […] of arterial blood from Okamoto-Aoki spontaneously hypertensive rats (SHR) (Taconic Farms, Germantown, New York) between 19 and 24 weeks in age was collected in 1 ml of 3.2% sodium citrate in a polystyrene tube. The blood was diluted with 3 ml of cold saline and centrifuged at room temperature for 15 minutes at 460Xg. The platelet rich plasma (PRP) was separated. The platelets were isolated by centrifuging the PRP for 10 minutes at 1060Xg and were washed in 4 ml of cold oxygenated Krebs phosphate buffer, pH 7.4. The chilled platelets, recovered from centrifuging at 800Xg for 10 minutes, were resuspended in oxygenated Krebs phosphate buffer and diluted to contain 4.5-6.0×10^4 platelets/μl. The inhibition of thromboxane (TX) formation was studied by determining the concentration of thromboxane B2 (TXB2), the stable hydrolysis product of TXA2. Assay samples, prepared on ice, contained 200 μl platelet suspension, 50 μl saline, and 50 μl vehicle or drug under study at a concentration of 1×10^-4 M. The samples were incubated for 10 minutes at 37° C. in metabolic shaker. The reaction was terminated by immersing the tubes in an ice bath and adding 50 μl of 0.5M citric acid. The samples were centrifuged for 10 minutes in a refrigerated centrifuge and the supernatants thus obtained were decanted and stored at -20° C. The TXB2 content for each sample was determined by a direct radioimmunoassay (RIA) utilizing a TXB2 specific RIA kit purchased from New England Nuclear, Boston, Massachusetts and expressed as pg TXB2 formed minute^-1 sample^-1, from which the percent inhibition of TXB2 formation was calculated.

For test [2], the system named is spontaneously hypertensive rats of the Okamoto strain. The test can be described thus: Hypotensive activity in spontaneously hypertensive rats (method of Chan and Poorvin). The format is in vivo, rat. To be noted: by gavage, 100 mg/kg or less, two doses 24 hours apart; MABP at 28 hours after initial dose; average baseline MABP 160±1.5 mm of mercury. The protocol: The novel compounds of the present invention are active hypotensive agents and were tested for hypotensive activity by the method of P. S. Chan and D. Poorvin, Clinical and Experimental Hypertension, 1 (6), 817-830 (1979). Male, 16 week old, spontaneously hypertensive rats of the Okamoto strain, from Taconic Farms, Germantown, New York, having an average mean arterial blood pressure of 160±1.5 mm of mercury, were used in the test. One to 3 rats were used per test compound. […] A second identical dose of the test compound, without sodium chloride loading was given 24 hours later. At 28 hours after the initial dose the mean arterial blood pressure (MABP) was measured. The procedure was repeated in a second and third rat when necessary.

Test [3] relates to CaCl2-induced cardiac arrhythmias, fibrillation and cardiac death in mice. The test can be described thus: Antiarrhythmic/antifibrillatory activity in anesthetized mice, calcium chloride challenge. To be noted: Mus musculus, iv, 0.25 h; Dose = 10 mg/kg I.V.; calcium chloride 200 mg/kg i.v.; 15 minutes observation; read-out: CaCl2 Mice Surviving / Mice Tested (converted). The format is in vivo, mice of the Swiss Webster Strain. An excerpt: (§1) Intravenous administration of high doses of calcium or potassium chloride in animals produces cardiac arrhythmias, cardiac fibrillation and cardiac arrest. Any agent that can prevent these events is considered an antiarrhythmic/antifibrillatory agent. (Meth. and Find Exptl. Clin Pharmacal.2:223-252(1980); Pharmacol Ther. 24:401-433 (1984); Experimental Cardiac and Antiarrhythmic Drugs, L. Szekeres and Gy. J. Dapp, Akademiai Kiado Preso, Budapest, 9-448 (1971)).
(§2) The method employed is as follows: Male mice of the Swiss Webster Strain (Charles River, Wilmington, MA) weighing 25-35 g were anesthetized with ethyl carbamate (urethan) (1.5g/kg body weight i.p.). A 25-gauge needle attached to PE-20 tubing was inserted into a caudal vein for drug administration. The lead II ECG was recorded by needle electrodes placed subcutaneously in the limbs. All data were collected on a Gould Brush recorder. Animals were observed 5 minutes before drug administration. A 5, 15 or 30 minute period following drug administration was allowed before the bolus injection of calcium chloride, 200 mg/ kg i.v. or potassium chloride, 62.5 mg/kg i.v. Control mice received 4 ml/kg of 0.9% sodium chloride i.v. Mice were observed an additional 15 minutes for arrhythmias,fibrillation, survival or death. Any compound at a dose of less than 20 mg/kg i.v. in either test that protects from cardiac death 3 or more mice out of 6 mice, is considered active.

Test [4] deals with KCl-induced cardiac arrhythmias, fibrillation and cardiac death in mice. Nature of the test: Antiarrhythmic/antifibrillatory activity in anesthetized mice, potassium chloride challenge. The format is in vivo, mice of the Swiss Webster Strain. To be noted: Mus musculus, iv, 0.25 h; Dose = 10 mg/kg I.V.; potassium chloride 62.5 mg/kg i.v.; 15 minutes observation; read-out: KCl Mice Surviving / Mice Tested (converted).
Text: as §1, §2

The source of these data is patent publication US5079247A, “N^1 -substituted benz(cd)indol-2-imine compounds as cardiovascular agents” (American Cyanamid Company, priority 1990, dated 1992).

Molecules are shown by their SMILES. Structures can show the parent of a compound that is named as a salt.

Turning to `c1cc2c3c(cccc3c1)N(CCN1CCOCC1)C2=NCCCn1ccnc1` [Example 8, N-[1-[2-(4-Morpholinyl)ethyl]benz[cd]indol-2(1H)-ylidene-1H-imidazole-1-propanamine, (E)-2-butenedioate (1:2)], 100 µM produced 96% inhibition in test [1]. In test [2], the “Avg. MABP in mm Hg (No. of Rats)” value is reported as 119 mm Hg. For the same compound, the responders at 10 mg/kg in test [3] was 0%; in test [4], 83.3%.

On to `c1cncc(CCCCN=C2c3cccc4cccc(c34)N2Cc2cccnc2)c1` [Example 31, N-[1-(3-Pyridinylmethyl)benz[cd]indol 2(1H)-ylidene]-3-pyridinebutanamine, dihydrochloride], for which at 100 µM the inhibition in test [1] was 96%. The “Avg. MABP in mm Hg (No. of Rats)” value in test [2] is given as 119 mm Hg.

As for `N#CCCCCN1C(=NCCCCc2cccnc2)c2cccc3cccc1c23` [Example 32, N2-[[4-(3-Pyridinyl)butyl]imino]benz[cd]indole-1(2H)-pentanenitrile, (E)2-butenedioate (4:7)], the inhibition at 100 µM in test [1] was 98%. In test [2], the “Avg. MABP in mm Hg (No. of Rats)” value came to 129 mm Hg. Also, the responders at 10 mg/kg in test [3] is 33.3%; in test [4], 83.3%.

`CN1C(=NCCCc2cccnc2)c2cccc3cccc1c23` [Example 26, N-(1 Methylbenz[cd]indol-2(1H) -ylidene)-3-pyridinepropanamine, (E)-2-butenedioate (2:3)] returned an inhibition at 100 µM in test [1] of 93%. Also, in test [2], the “Avg. MABP in mm Hg (No. of Rats)” value is on record as 114 mm Hg. Also, the responders at 10 mg/kg in test [3] is 16.7%; in test [4] it was 33.3%.

Compound `CC(CCn1ccnc1)N=C1c2cccc3cccc(c23)N1C(c1ccccc1)c1ccccc1` (stereo not drawn) [Example 35, N-[1-(Diphenylmethyl)benz[cd]indol-2(1H)-ylidene]alpha-methyl-1H-imidazole-1-propanamine] displayed an inhibition at 100 µM in test [1] of 88%. Further, the “Avg. MABP in mm Hg (No. of Rats)” value in test [2] is recorded as 127 mm Hg. Moreover, the responders at 10 mg/kg was 0% in test [3] and 50% in test [4].

In test [1], `c1ccc(CN2C(=NCCCCn3ccnc3)c3cccc4cccc2c34)cc1` [Example 23, N-[1-(Phenylmethyl)benz[cd]indol-2(1H)-ylidene-1H-imidazole-1-butanamine,(E)-2-butenedioate (1:2)] displayed an inhibition at 100 µM of 100%. Also, in test [2], the “Avg. MABP in mm Hg (No. of Rats)” value came to 124 mm Hg. The responders at 10 mg/kg in test [3] is 33.3%; in test [4], 100%.

As for `CN1C(=NCCCCc2cccnc2)c2cccc3cccc1c23` [Example 27], in test [1], the inhibition at 100 µM was found to be 100%. Besides, in test [2], the “Avg. MABP in mm Hg (No. of Rats)” value worked out at 107 mm Hg. Besides, the responders at 10 mg/kg in test [3] was 58.3%; in test [4] it was 50%.

Usually inhibition stands for the percentage by which the read-out fell short of the control. A higher inhibition goes with a strong effect.
